Common to all, as to format: cell-based
The subject of test [1] is P. aeruginosa NB52019, wild-type PAO1 strain. In words: MIC by broth microdilution, P. aeruginosa NB52019. As to conditions: Pseudomonas aeruginosa, CAMHB, 35° C., 20 hours, read-out: Antibacterial activity (MIC) NB52019. A digest of the protocol:
(§1)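 CLSI broth microdilution in CAMHB, inoculum ~5×10^5 CFU/mL, two-fold compound dilutions at 1% final DMSO. Plates incubated 20 h at 35°C in ambient air; MIC (μg/mL) is the lowest concentration preventing visible growth, confirmed by OD600.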
(In broth dilution the organism is exposed to a series of concentrations in liquid medium.)

In test [2] the test system is S. aureus NB01006-AVR005, gyrA (S84L), grlA (580F) and grlB (E471K). The test is described as follows: microbe, parasite or virus in culture. The note with it: Staphylococcus aureus, 20 h, read-out: Antibacterial activity (MIC) NB01006-AVR005. The method in brief: as §1
The subject of test [3] is S. aureus ATCC 49951 (NB01006). The test is described as follows: MIC by broth microdilution, S. aureus NB01006. As to conditions: Staphylococcus aureus, ATCC49951, CAMHB, 35° C., 20 hours, read-out: Antibacterial activity (MIC) NB01006. A digest of the protocol: as §1
The subject of test [4] is S. pneumoniae ATCC 25922 (NB07001). The test is described as follows: MIC by broth microdilution, S. pneumoniae NB07001. As to conditions: Streptococcus pneumoniae, read-out: Antibacterial activity (MIC) NB07001. The method in brief: as §1
The test system of test [5] is E. coli ATCC 25922 (NB27001). In words: MIC by broth microdilution, E. coli NB27001. As to conditions: Escherichia coli, ATCC25922, CAMHB, 35° C., 20 hours, read-out: Antibacterial activity (MIC) NB27001. A digest of the protocol: as §1
Test [6] deals with E. faecalis ATCC 29212 (NB04001). The test is described as follows: MIC by broth microdilution, E. faecalis NB04001. The note with it: Enterococcus faecalis, ATCC29212, CAMHB, 35° C., 20 hours, read-out: Antibacterial activity (MIC) NB04001. A digest of the protocol: as §1
The test system of test [7] is S. aureus NB01080 fluoroquinolone-resistant clinical isolate. The test is described as follows: MIC by broth microdilution, S. aureus NB01080. As to conditions: Staphylococcus aureus, CAMHB, 35° C., 20 hours, read-out: Antibacterial activity (MIC) NB01080. A digest of the protocol:
as §1

Setting [8] is: ATCC25922, S. pneumoniae, CAMHB supplemented with 5% lysed horse blood, 35° C., 20 hours.

≈ marks a conversion by molar mass, not a printed value. Where two headings read alike, the source gives them in different places. Some results are limits rather than exact numbers.

For `C[C@H]1COc2c(N3CCN4CCC3C4)c(F)cc3cc(C(=O)O)c(=O)n1c23` (stereo partly drawn) [Example 1.60, (3S)-10-(1,4-diazabicyclo[3.2.1]octan-4-yl)-9-fluoro-3-methyl-5-oxo-2,3-dihydro-5H-[1,4]oxazino[2,3,4-ij]quinoline-6-carboxylic acid], the MIC is 1 to 32 µg/mL (≈ 2.68 to 85.7 µM) in test [1]; greater than 32 µg/mL in test [2]; 1 to 32 µg/mL (≈ 2.68 to 85.7 µM) in test [3]; 1 to 32 µg/mL (≈ 2.68 to 85.7 µM) in test [4] (ATCC25922, 20 h); 1 to 32 µg/mL (≈ 2.68 to 85.7 µM) in test [5]; 1 to 32 µg/mL (≈ 2.68 to 85.7 µM) in test [6]. Further, the MIC in test [7] is greater than 32 µg/mL.

Regarding `C[C@H]1COc2c(N3C4CCC3CC4)c(F)cc3cc(C(=O)O)c(=O)n1c23` [Example 1.61, (S)-10-(7-azabicyclo[2.2.1]heptan-7-yl)-9-fluoro-3-methyl-5-oxo-2,3-dihydro-5H-[1,4]oxazino[2,3,4-ij]quinoline-6-carboxylic acid], the MIC in test [1], in test [2], in test [3], in test [4] (setting [8]), in test [5] and in test [6] was greater than 32 µg/mL each time. The MIC in test [7] was greater than 32 µg/mL.

Turning to `C[C@H]1COc2c(N3CCN4C5CCC(C5)C4C3)c(F)cc3cc(C(=O)O)c(=O)n1c23` (stereo partly drawn) [Example 1.63, (3S)-9-fluoro-3-methyl-10-(octahydro-2H-6,9-methanopyrido[1,2-a]pyrazin-2-yl)-5-oxo-2,3-dihydro-5H-[1,4]oxazino[2,3,4-ij]quinoline-6-carboxylic acid], the MIC is greater than 32 µg/mL in test [1]; greater than 32 µg/mL in test [2]; greater than 32 µg/mL in test [3]; greater than 32 µg/mL in test [4] (setting [8]); 1 to 32 µg/mL (≈ 2.42 to 77.4 µM) in test [5]; greater than 32 µg/mL in test [6]. The MIC in test [7] was greater than 32 µg/mL.

`C[C@H]1COc2c(N3CC4CCCC(C3)N4)c(F)cc3cc(C(=O)O)c(=O)n1c23` [Example 1.66, (3S)-10-(3,9-diazabicyclo[3.3.1]nonan-3-yl)-9-fluoro-3-methyl-5-oxo-2,3-dihydro-5H-[1,4]oxazino[2,3,4-ij]quinoline-6-carboxylic acid]: the MIC is greater than 32 µg/mL in test [1]; greater than 32 µg/mL in test [2]; 1 to 32 µg/mL (≈ 2.58 to 82.6 µM) in test [3]; 1 to 32 µg/mL (≈ 2.58 to 82.6 µM) in test [4] (setting [8]); 1 to 32 µg/mL (≈ 2.58 to 82.6 µM) in test [5]; greater than 32 µg/mL in test [6]. The MIC in test [7] was greater than 32 µg/mL.

Take `C[C@H]1COc2c(N3CCC(N)(CO)CC3)c(F)cc3cc(C(=O)O)c(=O)n1c23` [Example 1.67, (S)-10-(4-amino-4-(hydroxymethyl)piperidin-1-yl)-9-fluoro-3-methyl-5-oxo-2,3-dihydro-5H-[1,4]oxazino[2,3,4-ij]quinoline-6-carboxylic acid]: the MIC was greater than 32 µg/mL in test [1]; greater than 32 µg/mL in test [2]; greater than 32 µg/mL in test [3]; greater than 32 µg/mL in test [4] (ATCC25922, 20 h); greater than 32 µg/mL in test [5]; greater than 32 µg/mL in test [6]. Also, in test [7], the MIC was greater than 32 µg/mL.

For `C[C@H]1COc2c(N3CCC(O)(CN)CC3)c(F)cc3cc(C(=O)O)c(=O)n1c23` [Example 1.68, (S)-10-(4-(aminomethyl)-4-hydroxypiperidin-1-yl)-9-fluoro-3-methyl-5-oxo-2,3-dihydro-5H-[1,4]oxazino[2,3,4-ij]quinoline-6-carboxylic acid], the MIC in test [1] is greater than 32 µg/mL; in test [2] it was greater than 32 µg/mL; in test [3] it was greater than 32 µg/mL; in test [4] (ATCC25922, 20 h), greater than 32 µg/mL; in test [5], greater than 32 µg/mL; in test [6], greater than 32 µg/mL. For the same molecule, in test [7], the MIC is greater than 32 µg/mL.

`C[C@H]1COc2c(N3CCN4CC(F)(F)C[C@H]4C3)c(F)cc3cc(C(=O)O)c(=O)n1c23` [Example 1.72, (S)-10-((S)-7,7-difluorohexahydropyrrolo [1,2-a]pyrazin-2(1H)-yl)-9-fluoro-3-methyl-5-oxo-2,3-dihydro-5H-[1,4]oxazino[2,3,4-ij]quinoline-6-carboxylic acid]: the MIC in test [1] was greater than 32 µg/mL; in test [2], greater than 32 µg/mL; in test [3] it was 1 to 32 µg/mL (≈ 2.36 to 75.6 µM); in test [4] (ATCC25922, 20 h) it was greater than 32 µg/mL; in test [5], greater than 32 µg/mL; in test [6], greater than 32 µg/mL. The MIC in test [7] is greater than 32 µg/mL.

On to `C[C@H]1COc2c(N3CCN4C[C@@H](F)C[C@H]4C3)c(F)cc3cc(C(=O)O)c(=O)n1c23` [Example 1.73, (S)-9-fluoro-10-((7S,8aS)-7-fluorohexahydropyrrolo[1,2-a]pyrazin-2(1H)-yl)-3-methyl-5-oxo-2,3-dihydro-5H-[1,4]oxazino[2,3,4-ij]quinoline-6-carboxylic acid], for which the MIC in test [1] was greater than 32 µg/mL; in test [2], greater than 32 µg/mL; in test [3], 1 to 32 µg/mL (≈ 2.47 to 78.9 µM); in test [4] (ATCC25922, 20 h), greater than 32 µg/mL; in test [5] it was 1 to 32 µg/mL (≈ 2.47 to 78.9 µM); in test [6], greater than 32 µg/mL. Also, the MIC in test [7] is greater than 32 µg/mL.

For the molecule `C[C@H]1COc2c(N3C[C@H](F)[C@@H](C4(N)CC4)C3)c(F)cc3cc(C(=O)O)c(=O)n1c23` [Example 1.74, (S)-10-((3R,4R)-3-(1-aminocyclopropyl)-4-fluoropyrrolidin-1-yl)-9-fluoro-3-methyl-5-oxo-2,3-dihydro-5H-[1,4]oxazino[2,3,4-ij]quinoline-6-carboxylic acid], the MIC is greater than 32 µg/mL in test [1]; 1 to 32 µg/mL (≈ 2.47 to 78.9 µM) in test [2]; less than 1 µg/mL in test [3]; less than 1 µg/mL in test [4] (ATCC25922, 20 h); 1 to 32 µg/mL (≈ 2.47 to 78.9 µM) in test [5]; 1 to 32 µg/mL (≈ 2.47 to 78.9 µM) in test [6]. Moreover, the MIC in test [7] lay in the range of 1 to 32 µg/mL (≈ 2.47 to 78.9 µM).

As for `C[C@H]1COc2c(N3CC[C@@H](C4(N)CCCC4)C3)c(F)cc3cc(C(=O)O)c(=O)n1c23` [Example 1.75, (S)-10-((R)-3-(1-aminocyclopentyl)pyrrolidin-1-yl)-9-fluoro-3-methyl-5-oxo-2,3-dihydro-5H-[1,4]oxazino[2,3,4-ij]quinoline-6-carboxylic acid], the MIC is greater than 32 µg/mL in test [1]; 1 to 32 µg/mL (≈ 2.41 to 77 µM) in test [2]; less than 1 µg/mL in test [3]; less than 1 µg/mL in test [4] (ATCC25922, 20 h); 1 to 32 µg/mL (≈ 2.41 to 77 µM) in test [5]; 1 to 32 µg/mL (≈ 2.41 to 77 µM) in test [6]. In addition, the MIC in test [7] fell in the range of 1 to 32 µg/mL (≈ 2.41 to 77 µM).

For the molecule `C[C@H]1COc2c(N3CC(CC4(N)CC4)C3)c(F)cc3cc(C(=O)O)c(=O)n1c23` [Example 1.76, (S)-10-(3-((1-aminocyclopropyl)methyl)azetidin-1-yl)-9-fluoro-3-methyl-5-oxo-2,3-dihydro-5H-[1,4]oxazino[2,3,4-ij]quinoline-6-carboxylic acid], the MIC in test [1] was greater than 32 µg/mL; in test [2], greater than 32 µg/mL; in test [3], greater than 32 µg/mL; in test [4] (ATCC25922, 20 h) it was greater than 32 µg/mL; in test [5], greater than 32 µg/mL; in test [6], greater than 32 µg/mL. Moreover, in test [7], the MIC was greater than 32 µg/mL.

In the case of `C[C@H]1COc2c(N3C[C@@H](CO)[C@@H](CO)C3)c(F)cc3cc(C(=O)O)c(=O)n1c23` [Example 1.79, (S)-10-((3R,4S)-3,4-bis(hydroxymethyl)pyrrolidin-1-yl)-9-fluoro-3-methyl-5-oxo-2,3-dihydro-5H-[1,4]oxazino[2,3,4-ij]quinoline-6-carboxylic acid], the MIC in test [1] was greater than 32 µg/mL; in test [2], greater than 32 µg/mL; in test [3], 1 to 32 µg/mL (≈ 2.55 to 81.6 µM); in test [4] (ATCC25922, 20 h) it was greater than 32 µg/mL; in test [5] it was greater than 32 µg/mL; in test [6], greater than 32 µg/mL. Also, the MIC in test [7] was greater than 32 µg/mL.

With `NC1([C@@H]2CCN(c3c(F)cc4cc(C(=O)O)c(=O)n5c4c3OC[C@@H]5CO)C2)CC1.O=CO` [Example 2, (S)-10-((R)-3-(1-aminocyclopropyl)pyrrolidin-1-yl)-9-fluoro-3-(hydroxymethyl)-5-oxo-2,3-dihydro-5H-[1,4]oxazino[2,3,4-ij]quinoline-6-carboxylic acid formate salt], the MIC in test [1], in test [2], in test [3], in test [4] (setting [8]), in test [5] and in test [6] was greater than 32 µg/mL throughout. Further, in test [7], the MIC was greater than 32 µg/mL.

For the molecule `COC[C@H]1COc2c(N3CC[C@@H](C4(N)CC4)C3)c(F)cc3cc(C(=O)O)c(=O)n1c23.O=CO` [Example 3, (S)-10-((R)-3-(1-aminocyclopropyl)pyrrolidin-1-yl)-9-fluoro-3-(methoxymethyl)-5-oxo-2,3-dihydro-5H-[1,4]oxazino[2,3,4-ij]quinoline-6-carboxylic acid formate salt], the MIC in test [1], in test [2], in test [3], in test [4] (setting [8]), in test [5] and in test [6] was greater than 32 µg/mL throughout. Moreover, the MIC in test [7] was greater than 32 µg/mL.

Values taken from patent US20180318311A1, “TRICYCLIC 2-QUINOLINONES AS ANTIBACTERIALS” (priority 2017, published 2018).
